One data set concerns souris B6D2F1/Jico. As to the kind of experiment: Determination of the maximum tolerated dose (DMT). Particulars: B6D2F1/Jico mice, single intraperitoneal administration, doses 2,5 to 160 mg/kg, survival over 14 days. The class given is in vivo. The protocol: L'évaluation de la dose maximale tolérée a été réalisée chez des souris B6D2F1/Jico âgées de 4 à 6 semaines. Les composés ont été administrés par voie intrapéritonéale à des doses croissantes s'échelonnant de 2,5 à 160 mg/kg. La valeur de la DMT (exprimée en mg/kg) est déterminée à partir de l'observation du taux de survie des animaux sur une période de 14 jours après une administration unique du produit considéré. L'évolution pondérale des animaux est également suivie pendant cette période. Lorsque la valeur de la DMT est supérieure à 160 mg/kg, la valeur de la DMT est assimilée à 160 mg/kg par défaut.

Data set [1] deals with 12 lignées tumorales humaines. The experiment in a line: MTT colorimetric cytotoxicity test, all 12 tumour cell lines together. The class given is cell-based. The conditions noted are these: mean calculated from the cytotoxic activity on the 12 tumour cell lines; read-out: Cl 50 (the source's name). An excerpt: (§1) L'influence des composés de formules I et la sur les cellules néoplasiques a été évaluée à l'aide du test colorimétrique MTT. Le principe du test MTT est basé sur la réduction mitochondriale par les cellules vivantes métaboliquement actives du produit MTT (3-(4,5-diméthylthiazol-2-yl)-2,5 diphényltétrazolium bromide) de couleur jaune en un produit de couleur bleue, le formazan. La quantité de formazan ainsi obtenue est directement proportionnelle à la quantité de cellules vivantes présentes dans le (ou les) puit(s) de culture. Cette quantité de formazan est mesurée par spectrophotométrie.
(§2) Les lignées cellulaires sont maintenues en culture monocouche à 37°C dans des boîtes de culture à bouchon fermé contenant du milieu de base MEM 25 MM HEPES (Minimum Essential Medium). Ce milieu, adapté à la croissance d'une gamme de cellules variées diploïdes ou primaires de mammifères, est ensuite additionné : • d'une quantité de 5% de SVF (Sérum de Veau Foetal) décomplémenté à 56°C pendant 1 heure, • de 0,6 mg/ml de L-glutamine, • de 200 IU/ml de pénicilline, • de […] de streptomycine, • de 0,1 mg/ml de gentamicine.
Les 12 lignées cellulaires cancéreuses humaines utilisées ont été obtenues auprès de l'American Type Culture Collection (ATCC, Rockville, MD, USA). Ces 12 lignées cellulaires sont : • U-373MG (code ATCC : HTB-17) et U-87MG (code ATCC : HTB-14) qui sont deux glioblastomes, • SW1088 (code ATCC : HTB-12) qui est un astrocytome, • A549 (code ATCC : CCL-185) et A-427 (code ATCC : HTB-53) qui sont deux cancers du poumon non-à-petites-cellules, • HCT-15 (code ATCC : CCL-225) et LoVo (code ATCC : CCL-229) qui sont deux cancers colorectaux, • T-47D (code ATCC : HTB-133) et MCF7 (code ATCC : HTB-22) qui sont deux cancers du sein, • J82 (code ATCC : HTB-1) et T24 (code ATCC : HTB-4) qui sont deux cancers de la vessie, • PC-3 (code ATCC : CRL-1435) qui est un cancer de la prostate.
Au plan expérimental : 100 µl d'une suspension cellulaire contenant 20 000 à 50 000 (selon le type cellulaire utilisé) cellules/ml de milieu de culture sont ensemencés en plaques multi-puits de 96 puits à fond plat et sont mis à incuber à 37°C, sous atmosphère comprenant 5% de CO2 et 70% d'humidité. Au bout de 24 heures d'incubation, le milieu de culture est remplacé par 100 µl de milieu frais contenant soit les différents composés à tester à des concentrations variant de 10^-5 à 10^-10 M soit le solvant ayant servi à la mise en solution des produits à tester (condition contrôle). Après 72 heures d'incubation dans les conditions précédentes, le milieu de culture est remplacé par 100 µl d'une solution jaunâtre de MTT dissous à raison de 1 mg/ml dans du RPMI 1640. Les microplaques sont remises à incuber pendant 3 heures à 37°C puis centrifugées pendant 10 minutes à 400 g. La solution jaunâtre de MTT est éliminée et les cristaux de formazan bleu formés au niveau cellulaire sont dissous dans 100 µl de DMSO. Les microplaques sont ensuite mises sous agitation pendant 5 minutes. L'intensité de la coloration bleue résultant donc de la transformation du produit MTT jaune en formazan bleu par les cellules encore vivantes au terme de l'expérience est quantifiée par spectrophotométrie à l'aide d'un appareil de type DYNATECH IMMUNOASSAY SYSTEM aux longueurs d'onde de 570 nm et 630 nm correspondant respectivement aux longueurs d'ondes d'absorbance maximale du formazan et au bruit de fond. Un logiciel intégré au spectrophotomètre calcule les valeurs moyennes de densité optique ainsi que les valeurs de déviation standard (Dév. Std.) et d'erreur standard sur la moyenne (ESM).
L'activité inhibitrice de la croissance cellulaire des composés de formules I et la sur les différentes lignées cellulaires tumorales a été comparée à celle du produit naturel, l'ascididémine (CRL 8274). […]

The test system of the next data set is SW1088. The experiment in a line: MTT colorimetric cytotoxicity test, SW1088. It is filed as cell-based, humaines. The conditions noted are these: SW1088, 72 h incubation, read-out: Concentrations inhibitrices (M) encadrant la valeur de la concentration inhibitrice 50 %.
Source text: as §1, §2
(§3) Les 12 lignées cellulaires cancéreuses humaines utilisées ont été obtenues auprès de l'American Type Culture Collection (ATCC, Rockville, MD, USA). […]
Au plan expérimental : 100 µl d'une suspension cellulaire contenant 20 000 à 50 000 (selon le type cellulaire utilisé) cellules/ml de milieu de culture sont ensemencés en plaques multi-puits de 96 puits à fond plat et sont mis à incuber à 37°C, sous atmosphère comprenant 5% de CO2 et 70% d'humidité. […] L'intensité de la coloration bleue résultant donc de la transformation du produit MTT jaune en formazan bleu par les cellules encore vivantes au terme de l'expérience est quantifiée par spectrophotométrie à l'aide d'un appareil de type DYNATECH IMMUNOASSAY SYSTEM aux longueurs d'onde de 570 nm et 630 nm correspondant respectivement aux longueurs d'ondes d'absorbance maximale du formazan et au bruit de fond. […]
Background: Tetrazolium assays rely on reduction of a dye to a coloured formazan, in cell work by metabolically active cells.

For data set [2], the system named is modèle cellulaire de leucémie. Particulars: leukaemia cell model, literature value; cited from earlier work.
The subject of another data set is T24. As to the kind of experiment: MTT colorimetric cytotoxicity test, T24. It is filed as cell-based, humaines. The conditions noted are these: read-out: Concentrations inhibitrices (M) encadrant la valeur de la concentration inhibitrice 50 %.
Source text: as §1, §2, §3

For the next data set, the system named is J82. As to the kind of experiment: MTT colorimetric cytotoxicity test, J82. Particulars: J82, 72 h incubation, read-out: Concentrations inhibitrices (M) encadrant la valeur de la concentration inhibitrice 50 %. It is filed as cell-based, humaines.
Source text: as §1, §2, §3

The next data set concerns LoVo. The experiment in a line: MTT colorimetric cytotoxicity test, LoVo. The conditions noted are these: Homo sapiens, 72 h incubation, read-out: Concentrations inhibitrices (M) encadrant la valeur de la concentration inhibitrice 50 %. The class given is cell-based, humaines.
Source text: as §1, §2, §3

Another data set concerns PC-3. The experiment in a line: MTT colorimetric cytotoxicity test, PC-3. The class given is cell-based, humaines. Particulars: Homo sapiens, PC-3, 72 h incubation, read-out: Concentrations inhibitrices (M) encadrant la valeur de la concentration inhibitrice 50 %.
Source text: as §1, §2, §3

In another data set the test system is U-373MG. The experiment in a line: MTT colorimetric cytotoxicity test, U-373MG. It is filed as cell-based, humaines. The conditions noted are these: 72 h incubation, read-out: Concentrations inhibitrices (M) encadrant la valeur de la concentration inhibitrice 50 %.
Source text: as §1, §2, §3

Where two headings read alike, the source gives them in different places.

Consider `COc1ccnc2c1C(=O)c1nc3ccc(Br)cc3c3ccnc-2c13` [CRL 8389, 5-bromo-10-méthoxy-9H-quino[4,3,2-de][1,10]phénanthrolin-9-one], for which the “DMT” value in the data set on souris B6D2F1/Jico was >160 mg/kg. Also, the IC50 in [1] was 420 nM.

With `CN(C)c1ccc2nc3c4c(nccc4c2c1)-c1ncccc1C3=O` [CRL 8325, 5-(diméthylamino)-9H-quino[4,3,2-de][1,10]phénanthrolin-9-one], the “DMT” value with souris B6D2F1/Jico is on record as >160 mg/kg. Moreover, in data set [1], the IC50 is 37 nM.

With `O=C1c2cccnc2-c2nccc3c2c1nc1ccc(NCc2ccccc2)cc13` [CRL 8416, Chlorhydratede la 5-(benzylamino)-9H-quino[4,3,2-de][1,10] phénanthrolin-9-one], the “DMT” value in the data set with souris B6D2F1/Jico is given as >160 mg/kg. The IC50 in data set [1] was 80 nM.

As to `COc1ccc2nc3c4c(nccc4c2c1)-c1ncccc1C3=O` [CRL 8297, 5-méthoxy-9H-quino[4,3,2-de][1,10]phénanthrolin-9-one], in the data set with souris B6D2F1/Jico, the “DMT” value is >160 mg/kg. Moreover, in [1], the IC50 was 90 nM.

For `CC(=O)c1ccc(Br)cc1NC1=CC(=O)c2ncccc2C1=O` [CRL8268, 6-(2-acétyl-5-bromo-phénylamino)-quinoline-5,8 dione], in the data set on SW1088 (Homo sapiens), the IC50 is > 1e-05 M.

For “5-(2-chloroéthyl)amino-9H-quino[4,3,2de][1,10] phénanthrolin-9-one [CRL 8423]”, the “DMT” value with souris B6D2F1/Jico is listed as >160 mg/kg. Also, the IC50 in data set [1] is 7 nM.

`O=C1c2nccc(Br)c2-c2nc3ccccc3c3ccnc1c23` [CRL 8248, 5-bromo-9H-quino[4,3,2-de] [1,10]phénantrolin-9-one]: in the data set on souris B6D2F1/Jico, the “DMT” value is >160 mg/kg. Besides, the IC50 in data set [1] was 80 nM.

For “Chlorhydrate de la 5-amino-9H-quino[4,3,2-de][1,10]phénanthrolin-9-one [CRL 8406]”, the “DMT” value in the data set with souris B6D2F1/Jico is >160 mg/kg. In addition, the IC50 in data set [1] is 60 nM.

In the case of “5-bis(2-chloroéthyl)amino-9H-quino[4,3,2de][1,10] phénanthrolin-9-one [CRL 8422]”, the “DMT” value in the data set on souris B6D2F1/Jico is recorded as >160 mg/kg. Moreover, the IC50 in data set [1] is 100 nM.

As to “5-(diméthylamino-2-éthyl)amino-9H-quino[4,3,2de][1,10] phénanthrolin-9-one [CRL 8419]”, the “DMT” value with souris B6D2F1/Jico amounted to 40 mg/kg. Also, the IC50 in [1] was 60 nM.

Consider “9-H-quino[4,3,2-de][1,10]phénanthrolin-9-one [CRL 8274, reference compound]”, for which, in the data set with souris B6D2F1/Jico, the “DMT” value amounted to 20 mg/kg. Further, the IC50 in data set [1] was 100 nM.

Consider “2-bromoleptoclinidone [CRL 8269, reference compound]”, for which the “DMT” value with souris B6D2F1/Jico stood at 40 mg/kg. Besides, in [1], the IC50 is 120 nM. Besides, the “DE 50” value in [2] is 0.4 µg/mL.

As for “5-chloro-9H-quino [4,3,2-de] [1,10] phénantrolin-9-one [CRL 8301]”, the “DMT” value in the data set with souris B6D2F1/Jico is >160 mg/kg. Besides, in [1], the IC50 is 270 nM.

For the molecule `O=C1c2cccnc2-c2nccc3c2c1nc1ccc(NCc2ccccc2)cc13` [CRL 8241, 5-(benzylamino)-9H-quino[4,3,2-de][1,10] phénanthrolin-9-one], the “DMT” value in the data set on souris B6D2F1/Jico is >160 mg/kg. Also, the IC50 in data set [1] is 140 nM.

In the case of `CN(C)c1ccc2nc3c4c(nccc4c2c1)-c1ncccc1C3=O` [CRL 8407, Chlorhydratede la 5-(diméthylamino)-9H-quino[4,3,2-de][1,10] phénanthrolin-9-one], the “DMT” value with souris B6D2F1/Jico was >160 mg/kg. Also, in data set [1], the IC50 was 22 nM.

In the case of `Cc1ccc2nc3c4c(nccc4c2c1)-c1ncccc1C3=O` [CRL 8323, 5-méthyl-9H-quino [4,3,2-de][1,10] phénanthrolin-9-one], the “DMT” value in the data set on souris B6D2F1/Jico is 20 mg/kg. Moreover, the IC50 in data set [1] is 60 nM.

For the molecule `Nc1ccnc2c1-c1nc3ccccc3c3ccnc(c13)C2=O` [CRL 8347, 5-amino-9H-quino[4,3,2-de][1,10]phénanthtolin-9-one], the “DMT” value with souris B6D2F1/Jico is reported as >160 mg/kg. The IC50 in [1] is 21 nM.

Regarding `CC(=O)c1cc(C)ccc1NC1=CC(=O)c2ncccc2C1=O` [CRL8322, 6-(2-acétyl-4-méthyl-phénylamino)-quinoline-5,8-dione], the IC50 was > 1e-05 M in the data set on SW1088 (Homo sapiens); > 1e-05 M in the data set on T24 (Homo sapiens, T-24, T24, 72 h incubation); > 1e-05 M in the data set with J82 (Homo sapiens); > 1e-05 M with LoVo; > 1e-05 M in the data set with PC-3.

In the case of `Cc1ccc2nc3c(c(C)c2c1)C(=O)c1ncccc1C3=O` [CRL8324, 9,11-diméthyl-1,6-diaza-naphtacène-5,12-dione], the IC50 in the data set with U-373MG is > 1e-05 M; in the data set on SW1088 it was > 1e-05 M; in the data set with T24 (T24, 72 h incubation), > 1e-05 M; in the data set with J82 it was > 1e-05 M.

As for “Chlorhydrate de la 5-(diméthylamino-2-éthyl)amino-9H-quino[4,3,2de][1,10] phénanthrolin-9-one [CRL 8418]”, the “DMT” value with souris B6D2F1/Jico is recorded as 40 mg/kg. Moreover, in [1], the IC50 is 110 nM.
